The subject of data set [1] is human pancreatic cancer cells (HPAC). Kind of data set: Antiproliferative effect on cancer cells (in vitro), sulforhodamine B method, HPAC. It counts as cell-based. Conditions: 5 days incubation with test compound. Here is the method:
(§1) Growth inhibition of human hepatic cancer cells (HuH-7) was determined by the sulforhodamine B method based on the method of Skehan P. et al. (J Natl Cancer Inst. 1990 Jul. 4; 82(13): 1107-12). In the study, HuH-7 cells were seeded on DMEM medium containing 10% fetal bovine serum in a 96-well microplate. After 24-hour incubation at 37° C. in the presence of 5% carbon dioxide, the test compound was added and the cells were incubated for another 5 days. After incubation, a trichloroacetic acid solution was added to yield the final concentration of 10% and the cells were left to stand at 4° C. for 1 hour to fix. Then, the cells were washed with water to remove the medium and trichloroacetic acid and dried in the air. The dried cells were stored at 4° C. until they were stained with sulforhodamine B. To each well, 1% acetic acid solution containing 0.4% sulforhodamine B was added and left to stand for 20 to 30 minutes at room temperature. After discarding the supernatant, each well was washed with 1% acetic acid solution, and 10 mM Tris ([…]) solution was added while stirring to elute the dye taken into the cells. Then, the optical density was determined at the measurement wavelength of 492 nm and the reference wavelength of 690 nm, and the difference was calculated. The cell growth activity in each well was defined as the value determined by subtracting the OD in the control well not containing cells (the difference in absorbance between 492 nm and 690 nm) from that in the test well.
(§2) The 50% inhibitory concentration (IC50 (nM)) of the test compound was determined by comparing the cell growth activity in the well containing the test compound with that of the control not containing the test compound.
The growth inhibition on human pancreatic cancer cells (HPAC) was also determined by the above method using HPAC instead of HuH-7 and RPMI 1640 medium containing 10% fetal bovine serum instead of the DMEM medium containing 10% fetal bovine serum.
Background: The SRB assay estimates cell density from bound dye.

Data set [2] deals with human hepatic cancer cells (HuH-7). Kind of data set: Antiproliferative effect on cancer cells (in vitro), sulforhodamine B method, HuH-7. To be noted: HuH-7 cells, 5 days incubation with test compound. Format: cell-based. Here is the method: as §1, §2
Data set [3] has as its system human chronic myelocytic leukemia cells (KU812). In words: Antiproliferative effect on cancer cells (in vitro), WST-8 assay, KU812. To be noted: 5 days incubation with test compound. It counts as cell-based. As for the experimental part: The growth inhibition on human chronic myelocytic leukemia cells (KU812) was determined by a WST-8 assay according to the method of Singh A K, et al. (Cancer Lett. 1996 Oct. 1; 107(1): 109-15.). In this method, KU812 cells were seeded in RPMI 1640 medium containing 10% fetal bovine serum in a 96-well microplate and incubated at 37° C. for 24 hours in the presence of 5% carbon dioxide. Then, the test compound was added and the cells were incubated for another 5 days. After incubation, 15 μL of 5 mM WST-8 (2-(2-methoxy-4-nitrophenyl)-3-(4-nitrophenyl)-5-(2,4-disulfenyl)-2H-tetrazolium, monosodium salt) was added and the cells were incubated for 2 hours. After the 2-hour incubation, 15 μL of 1% SDS (sodium dodecyl sulfate) was added and the optical density was determined at the measurement wavelength of 450 nm and the reference wavelength of 630 nm, and the difference was calculated. The cell growth activity in each well was defined as the value determined by subtracting the OD in the control well not containing cells (the difference in absorbance between 492 nm and 690 nm) from that in the test well.
as §2
(In general: Tetrazolium assays rely on reduction of a dye to a coloured formazan, in cell work by metabolically active cells.)

Another data set concerns STAT3. In words: Inhibitory effect on IL-6-induced STAT3 phosphorylation in human myeloma cells (in vitro). Format: cell-based. Conditions: U266B1 human myeloma cells, IL-6 1 ng/mL, pSTAT3 (Y705) by flow cytometry. As for the experimental part: The inhibitory effect of the test compound on phosphorylation of STAT3 (signal transducer and activator of transcription-3) in human myeloma cells ([…]) induced by interleukin-6 (IL-6) was examined using the modified method of Tochizawa S. et al. (J Immunol Methods. 2006 Jun. 30; 313(1-2): 29-37). In the study, U266B1 cells were seeded in an RPMI 1640 medium containing 10% fetal bovine serum (FBS) in a 12-well plate and incubated at 37° C. for 2 hours in the presence of carbon dioxide. After incubation, IL-6 was added to yield the concentration of 1 ng/mL and the cells were incubated at 37° C. for 15 minutes in the presence of 5% carbon dioxide. After fixation of the cells by the addition of a buffer containing formaldehyde (Lyse/Fix Buffer, BD Biosciences) at room temperature for 10 minutes, the suspension was centrifuged to remove the supernatant and the cells were treated with ice-cold methanol for 10 minutes to improve the permeability of the cell membrane. The cells were centrifuged to remove methanol and washed twice with Dulbecco's phosphate buffered saline (D-PBS) containing 2% fetal bovine serum (FBS). A fluorescence-labeled anti-phosphorylated STAT3 (pSTAT3) antibody (Alexa Fluor 488-labeled anti-pSTAT3 (Y705) antibody, BD Biosciences) was added for staining in an ice bath for 30 minutes.
The cells were washed once with 2% FBS-containing D-PBS and suspended in 2% FBS-containing D-PBS, and the fluorescence intensity was determined using a flow cytometer (FACS Sort, BD Biosciences). The ratio of fluorescence intensity in the test group to the control group (T/C) was determined from the difference in the geometric mean of pSTAT3 fluorescence intensity between the test compound group of each concentration and the non-stimulated control group according to the following equation by defining the difference in the geometric mean of pSTAT3 fluorescence intensity between the IL-6 induced control and the non-stimulated control as 100%. T/C(%)=([…] of pSTAT3 fluorescence intensity in the cells treated with the test compound—geometric mean of pSTAT3 fluorescence intensity in non-stimulated control)/(geometric mean of fluorescence intensity of IL-6-induced pSTAT3 in the control−geometric mean of pSTAT3 fluorescence intensity in non-stimulated control)×100.
The concentration of the test compound inhibiting phosphorylation of STATS at 50% (IC50; concentration of the test compound corresponding to 50% T/C(%)) was determined using T/C(%) values at the respective concentrations and defined as the index for the inhibitory activity.
For orientation: A flow cytometer gives signals particle by particle.

Counter-ions that a name gives are not always drawn. Some results are limits rather than exact numbers.

One may read the IC50 as the midpoint of a concentration-inhibition curve. A low value points to inhibition by little substance. The melting point is the temperature, or range, at which the solid turns liquid.

The molecule `COc1ccc(S(=O)(=O)N(C)c2ccc(Oc3ccc4cc(C(=O)N5CCN(Cc6ccc(OCC(F)(F)F)cc6)CC5)n(C)c4c3)nc2)cc1.Cl` [Example 73, 4-Methoxy-N-methyl-N-[6-(1-methyl-2-{4-[4-(2,2,2-trifluoro-ethoxy)benzyl]piperazine-1-carbonyl}-1H-indol-6-yloxy)pyridin-3-yl]benzenesulfonamide hydrochloride] showed a melting point of 213.4 to 214.1 °C. The molecule further showed an IC50 in data set [1] (Homo sapiens, 120 h) of under 70 nM. The concentration for half-maximal inhibition (IC50) in data set [2] (Homo sapiens, 120 h) was under 10 nM. This molecule also displayed a concentration for half-maximal inhibition (IC50) in data set [3] (Homo sapiens, 120 h) of under 2 nM.

On to `CCOc1ccc(CN2CCN(C(=O)c3cc4cc(Oc5ccc(N(C)C(=O)c6ccc(C(F)(F)F)cc6)c(C)n5)ccc4n3C)CC2)cc1` [Example 368, N-(6-{2-[4-(4-Ethoxybenzyl)piperazine-1-carbonyl]-1-methyl-1H-indol-5-yloxy}-2-methylpyridin-3-yl)-h=methyl-4-trifluoromethyl-benzamide hydrobromide], for which the results for the concentration for half-maximal inhibition (IC50) in data set [1], in data set [2] and in data set [3] were under 70 nM, under 10 nM and under 2 nM, respectively.

Consider `CCc1ccc(CN2CCN(C(=O)c3cc4cc(Oc5ccc(N(C)C(=O)c6ccc(C(F)(F)F)cc6)cn5)ccc4n3C)CC2)cc1.O=C(O)C(=O)O` [Example 391, N-(6-{2-[4-(4-Ethylbenzyl)piperazine-1-carbonyl]-1-methyl-1H-indol-5-yloxy}pyridin-3-yl)-N-methyl-4-trifluoromethylbenzamide oxalate], for which the melting point was in the range of 167 to 169 °C. In data set [1] (Homo sapiens, 120 h), the IC50 is under 70 nM. For the same molecule, the IC50 in data set [2] (Homo sapiens, 120 h) is under 10 nM. In data set [3] (Homo sapiens, 120 h), the IC50 was under 2 nM.

In turn, `CN(C(=O)c1ccc(C(F)(F)F)cc1)c1ccc(Oc2ccc3c(c2)cc(C(=O)N2CCN(Cc4ccc(OC(F)(F)C(F)F)cc4)CC2)n3C)nc1.O=C(O)/C=C\C(=O)O` [Example 403, N-Methyl-N-[6-(1-methyl-2-{4-[4-(1,1,2,2-tetrafluoroethoxy)-benzyl]piperazine-1-carbonyl}-1H-indol-5-yloxy)pyridin-3-yl]-4-trifluoromethylbenzamide maleate] displayed a melting point of 137 to 139 °C. In the data set with STAT3, this molecule came in with an IC50 of under 10 nM.

In turn, `CCOc1ccc(CN2CCN(C(=O)c3cc4cc(Oc5ccc(N(C)C(=O)c6ccc(C(F)(F)F)cc6)cn5)ccc4n3C)CC2)nc1.O=C(O)/C=C\C(=O)O` [Example 417, N-(6-{2-[4-(5-Ethoxypyridin-2-ylmethyl)piperazine-1-carbonyl]-1-methyl-1H-indol-5-yloxy}pyridin-3-yl)-N-methyl-4-trifluoromethyl-benzamide maleate] had a melting point of 129 to 130 °C. This molecule also had a half-maximal inhibitory concentration (IC50) in the data set on STAT3 of under 10 nM.

With `Br.CCCOc1ccc(CN2CCN(C(=O)c3cc4ccc(Oc5ccc(N(C)C(=O)c6ccc(C(F)(F)F)cc6)cn5)cc4n3C)CC2)cc1` [Example 420, N-Methyl-N-(6-{1-methyl-2-[4-(4-propoxybenzyl)piperazine-1-carbonyl]-1H-indol-6-yloxy}pyridin-3-yl)-4-trifluoromethyl-benzamide hydrobromide], the melting point lay within 246 to 248 °C. Moreover, the 50% inhibitory concentration (IC50) in the data set with STAT3 is under 10 nM.

`Br.CC(C)Oc1ccc(CN2CCN(C(=O)c3cc4ccc(Oc5ccc(N(C)C(=O)c6ccc(C(F)(F)F)cc6)cn5)cc4n3C)CC2)cc1` [Example 421, N-(6-{2-[4-(4-Isopropoxybenzyl)piperazine-1-carbonyl]-1-methyl-1H-indol-6-yloxy}pyridin-3-yl)-N-methyl-4-trifluoromethyl-benzamide hydrobromide] had a melting point of 251 to 253 °C. Besides, the IC50 in the data set on STAT3 was under 10 nM.

In the case of `CC(C)Oc1ccc(CN2CCN(C(=O)c3cc4ccc(Oc5ccc(N(C)S(=O)(=O)c6ccc(Cl)c(Cl)c6)cn5)cc4n3C)CC2)cc1` [Example 507, 3,4-Dichloro-N-(6-{2-[4-(4-isopropoxybenzyl)piperazine-1-carbonyl]-1-methyl-1H-indol-6-yloxy}pyridin-3-yl)-N-methyl-benzenesulfonamide], the melting point lay in the range of 186.8 to 187 °C. Besides, the IC50 with STAT3 is under 10 nM.

With `Cc1ccc(S(=O)(=O)N(C)c2ccc(Oc3ccc4cc(C(=O)N5CCN(Cc6ccc(OC(C)C)cc6)CC5)n(C)c4c3)nc2)cc1` [Example 525, N-(6-{2-[4-(4-Isopropoxybenzyl)piperazine-1-carbonyl]-1-methyl-1H-indol-6-yloxy}pyridin-3-yl)-4,N-dimethylbenzenesulfonamide], the melting point fell in the range of 140.9 to 145.8 °C. For the same molecule, in the data set with STAT3, the 50% inhibitory concentration (IC50) was under 10 nM.

For the molecule `Cc1ccc(S(=O)(=O)N(C)c2ccc(Oc3ccc4cc(C(=O)N5CCN(Cc6ccc7c(c6)OC(F)(F)O7)CC5)n(C)c4c3)nc2)cc1.Cl` [Example 526, N-(6-{2-[4-(2,2-Difluorobenzo[1,3]dioxol-5-ylmethyl)piperazine-1-carbonyl]-1-methyl-1H-indol-6-yloxy}pyridin-3-yl)-4,N-dimethyl-benzenesulfonamide hydrochloride], the melting point lay in the range of 240 to 243 °C. The same molecule registered an IC50 with STAT3 of under 10 nM.

`Cn1c(C(=O)N2CCN(Cc3ccc(-c4csnn4)cc3)CC2)cc2ccc(Oc3ccc(NC(=O)c4ccc(C(F)(F)F)cc4)cn3)cc21` [Example 571, N-(6-{1-Methyl-2-[4-(4-[1,2,3]thiadiazol-4-ylbenzyl)piperazine-1-carbonyl]-1H-indol-6-yloxy}pyridin-3-yl)-4-trifluoromethyl-benzamide] gave a melting point of 220 to 220.8 °C. For the same molecule, the IC50 in data set [1] (Homo sapiens, 120 h) was under 70 nM. The half-inhibitory concentration (IC50) in data set [2] (Homo sapiens, 120 h) is under 10 nM. This molecule also displayed an IC50 in data set [3] (Homo sapiens, 120 h) of under 2 nM.

The record behind these values is patent publication US8551999B2, “Heterocyclic compound and pharmaceutical composition thereof” (Otsuka Pharmaceutical Co., Ltd., priority 2007, dated 2013).
